We go through six molecules from patent US8889631B2, “Disruptors of early/recycling endosomes” (The University of Kansas, priority 2008, dated 2014).

Assay [1] deals with CHO cells. Kind of assay: Release of fluorescent cargo from early/recycling endosomes, confocal microscopy, CHO cells. It counts as cell-based, Chinese hamster. As to conditions: for release of the fluorophore of the cargo compound when combined with Compound 1 or Compound 2: Compound 3 or Compound 4 (5 μM), disruptor 8 μM, 24 h; for release of green fluorescence of Compound 3 from early/recycling endosomes by the endosome disruptor: Compound 3 (5 μM) and Compounds 1, 2, or 5 (8 μM) for 24 h. The method, then: (§1) FIG. 4A-4J show confocal fluorescence and DIC micrographs of living cells treated with fluorescent probes. FIGS. 4A-4F show CHO cells were treated with Compound 3 or Compound 4 (5 μM) and Compounds 1, 2, or 5 (8 μM) for 24 h. In FIG. 4F, [chloroquine]=5 μM. In FIGS. 4G-4J, Jurkat lymphocytes were treated with Compound 3 or Compound 4 (2.5 μM) and Compound 1 or Compound 5 (2 μM) for 12 h.
(§2) A Zeiss LSM 5 Pascal confocal laser-scanning microscope fitted with a Plan Apochromat objective (63×) was employed. Fluorescein and Alexa Fluor-488 were excited with a 488 nm Argon ion laser (25 mW, 1% laser power) and emitted photons were collected through 505 nm LP filter. Excitation of 6-Hex, Texas Red, and DiI employed a 543 nm HeNe laser and emitted photons were collected through a 560 nm LP filter.

Assay [2] relates to Jurkat lymphocytes. Kind of assay: Release of fluorescent cargo from early/recycling endosomes, confocal microscopy, Jurkat lymphocytes. Type of assay: cell-based, human. The note with it: for release of the fluorophore of the cargo compound when combined with Compound 1: Compound 3 or Compound 4 (2.5 μM), Compound 1 (2 μM), 12 h; for release of green fluorescence of Compound 3 from early/recycling endosomes by the endosome disruptor: Compound 3 (2.5 μM) and disruptor (2 μM) for 12 h. As to the method:
as §1
Jurkat cells were treated with green fluorescent Compound 3 (2.5 μM) and red fluorescent Compound 2 (2 μM) for 12 h at 37° C. In FIG. 9B, bafilomycin A1 (1 μM), a vacuolar H^+ ATPase inhibitor that blocks acidification of endosomes, was added. FIG. 9A is without bafilomyin. Cells were washed with media and imaged by DIC and confocal laser scanning microscopy.
as §2

Assay [3] relates to Jurkat lymphocytes. Kind of assay: Inhibiting endosome acidification, Jurkat cells (bafilomycin A1). Type of assay: cell-based, human. The note with it: bafilomycin A1 1 μM, Compound 3 (2.5 μM) and Compound 2 (2 μM), 12 h, 37° C. As to the method: Jurkat lymphocytes (5×10^5) in media (500 μL) were pretreated with bafilomycin A1 (final concentration=1 μM) in DMSO (final [DMSO]=2%) for 1 h. […] After incubation at 37° C. for 12 h, the cells were washed with fresh media (500 μL) and resuspended in fresh media (125 μL) for analysis by confocal microscopy.

In assay [4] the test system is CHO cells. Kind of assay: Dose dependence of endosomal escape quantified by flow cytometry, CHO cells. It counts as cell-based, Chinese hamster. The note with it: Compound 3 (5 μM) with increased amounts of Compound 1, or Compound 5 at 8 micromolar, 24 h, 37° C. As to the method:
(§3) Cellular fluorescence was analyzed by flow cytometry.
(§4) Analyses were performed with a Beckman-Coulter XL-MCL bench-top flow cytometer. Forward-scatter (FS) and side-scatter (SSC) dot plots afforded cellular physical properties of size and granularity that allowed gating of live cells. After gating, 10,000 cells were counted. In studies of endosomal release of fluorescein derivative Compound 6 mediated by Compound 1, the fluorophore was excited at 488 nm with a 15 mW air-cooled argon-ion laser, the emission was split with a 550 nm dichroic and filtered through a 510 nm long pass filter and 530/30-nm band pass filter using the XL-MCL cytometer. The PMT voltage for this instrument was set to 501 for Jurkat cells and 524 for CHO cells.

Assay [5] has as its system Jurkat lymphocytes. Kind of assay: Dose dependence of endosomal escape quantified by flow cytometry, Jurkat lymphocytes. It counts as cell-based, human. As to conditions: Compound 3 (2.5 μM) with increased amounts of Compound 1, or Compound 5 at 8 micromolar, 12 h, 37° C. The method, then: as §3, §4
The subject of assay [6] is CHO cells. As to the kind of experiment: Inhibiting endosome acidification, CHO cells (chloroquine). The note with it: chloroquine 5 μM, Compound 3 (5 μM) and Compound 2 (8 μM), 24 h. Type of assay: cell-based, Chinese hamster. As to the method:
Exponentially growing CHO cells were cultivated on round collagen-coated coverslips (22 mm, BD BioCoat) in a six-well plate (1.2×10^5 cells/well, 2 mL). After 24 h, the media was replaced with fresh media containing chloroquine (final concentration=5 μM) in DMSO (final [DMSO]=1%) and cells were incubated at 37° C. for 1 h. The media was replaced with fresh media containing Compound 3 (5 μM) and Compound 2 (concentration=8 μM) in DMSO (final [DMSO]=1%) with or without chloroquine […] (final concentration=5 μM) in DMSO (final [DMSO]=1%). The cells were incubated at 37° C. for 24 h. The cells were washed with PBS (2×2 mL) prior to analysis by confocal microscopy.

Entries after “also recorded” stand apart in the source; their conditions may differ. Square brackets hold non-standard residues; d marks the D form. Peptide text beside a SMILES is read from it. * marks the point of attachment. Pentanoyl(5-NH-cholesteryl) = CC(C)CCC[C@@H](C)[C@H]1CC[C@H]2[C@@H]3CC=C4C[C@@H](NCCCCC(=O)*)CC[C@]4(C)[C@H]3CC[C@]12C; X1 = O=C(O)c1c(Cl)cc(C(=O)*)c(Cl)c1-c1c2cc(Cl)c(=O)c(Cl)c-2oc2c(Cl)c(O)c(Cl)cc12; Ahx = NCCCCCC(=O)O

For `CC(C)CCC[C@@H](C)[C@H]1CC[C@H]2[C@@H]3CC=C4C[C@@H](NCCCNC(=O)[C@H](CCC(=O)O)NC(=O)[C@H](CCC(=O)O)NC(=O)CCSSCCNC(=O)c5ccc(-c6c7ccc(=O)cc-7oc7cc(O)ccc67)c(C(=O)O)c5)CC[C@]4(C)[C@H]3CC[C@]12C` [Compound 3, (11S,14S)-11-(2-Carboxylatoethyl)-1-[3-carboxylato-4-(6-oxido-3-oxo-3H-xanthen-9-yl)phenyl]-14-[({3-(3β-cholest-5-en-3-ylammonio)propyl}amino)carbonyl]-1,9,12-trioxo-5,6-dithia-2,10,13-triazaheptadecan-17-oate], the “release of the fluorophore of the cargo compound when combined with Compound 1 or Compound 2” value with CHO cells [1] is “released from entrapment in early/recycling endosomes”. Also, the “release of the fluorophore of the cargo compound when combined with Compound 1” value in the assay with Jurkat lymphocytes [2] is reported as “released from entrapment in early/recycling endosomes”.
For the molecule `CC(C)CCC[C@@H](C)[C@H]1CC[C@H]2[C@@H]3CC=C4C[C@@H](NCCCNC(=O)[C@H](CCC(=O)O)NC(=O)[C@H](CCC(=O)O)NC(=O)CCNC(=O)CCNC(=O)c5ccc(-c6c7ccc(=O)cc-7oc7cc(O)ccc67)c(C(=O)O)c5)CC[C@]4(C)[C@H]3CC[C@]12C` [Compound 4, (11S,14S)-11-(2-Carboxylatoethyl)-1-[3-carboxylato-4-(6-oxido-3-oxo-3H-xanthen-9-yl)phenyl]-14-[({3-(3β-cholest-5-en-3-ylammonio)propyl}amino)carbonyl]-1,5,9,12-tetraoxo-2,6,10,13-tetraazaheptadecan-17-oate], the “release of the fluorophore of the cargo compound when combined with Compound 1 or Compound 2” value in the assay on CHO cells [1] is recorded as “blocked release of the fluorophore”. The “release of the fluorophore of the cargo compound when combined with Compound 1” value in the assay with Jurkat lymphocytes [2] is recorded as “blocked release of the fluorophore”.
Regarding `CO/C1=C\C(C)=C\[C@@H](C)[C@@H](O)[C@@H](C)C/C(C)=C/C=C/[C@H](OC)[C@@H]([C@@H](C)[C@@H](O)[C@H](C)[C@@]2(O)C[C@@H](O)[C@H](C)[C@@H](C(C)C)O2)OC1=O` [bafilomycin A1], the “effect of raising endosomal pH on release of the fluorophore (endosomal escape)” value with Jurkat lymphocytes [3] is listed as “blocked release of the fluorophore; also recorded: retention in endosomes”.
In the case of `CC(C)CCC[C@@H](C)[C@H]1CC[C@H]2[C@@H]3CC=C4C[C@@H](NCCCCC(=O)N[C@@H](CCC(=O)O)C(=O)N[C@@H](CCCCNC(=O)c5cc(Cl)c(C(=O)O)c(-c6c7cc(Cl)c(=O)c(Cl)c-7oc7c(Cl)c(O)c(Cl)cc67)c5Cl)C(=O)NCCCCCC(=O)NCCCCCC(=O)N[C@@H](CO)C(=O)N[C@@H](CO)C(=O)N[C@@H](C)C(=O)N[C@@H](Cc5c[nH]c6ccccc56)C(=O)N[C@@H](Cc5c[nH]c6ccccc56)C(=O)N[C@@H](CO)C(=O)N[C@@H](Cc5ccc(O)cc5)C(=O)N[C@@H](Cc5c[nH]c6ccccc56)C(=O)N5CCC[C@H]5C(=O)N5CCC[C@H]5C(=O)N[C@H](C(=O)N[C@@H](C)C(N)=O)C(C)C)CC[C@]4(C)[C@H]3CC[C@]12C` [Compound 2, N-(6-{[6-({N-{5-(3β-Cholest-5-en-3-ylammonio)pentanoyl}-5-oxidanidyl-5-oxidanylidene-L-norvalyl-N^6-[4-carboxy-2,5-dichloro-3-(2,4,5,7-tetrachloro-6-hydroxy-3-oxo-3H-xanthen-9-yl)benzoyl]-L-lysyl}amino)hexanoyl]amino}hexanoyl)-L-seryl-L-seryl-L-alanyl-L-tryptophyl-L-tryptophyl-L-seryl-L-tyrosyl-L-tryptophyl-L-prolyl-L-prolyl-L-valyl-L-alaninamide] ({Pentanoyl(5-NH-cholesteryl)}-EK(X1)[Ahx][Ahx]SSAWWSYWPPVA-NH2), the “release of green fluorescence of Compound 3 from early/recycling endosomes by the endosome disruptor” value was “fluorescence was observed in the cytosol and nucleus” in the assay with CHO cells [1]; “endosomal escape” in the assay on Jurkat lymphocytes [2].
Turning to “Ac-SSAWWSYWPPVA-NH2 [Compound 5, N-Acetyl-L-seryl-L-seryl-L-alanyl-L-tryptophyl-L-tryptophyl-L-seryl-L-tyrosyl-L-tryptophyl-L-prolyl-L-prolyl-L-valyl-L-alaninamide, reference compound]”, the “release of green fluorescence of Compound 3 from early/recycling endosomes by the endosome disruptor” value in the assay on CHO cells [1] and in the assay with Jurkat lymphocytes [2] was “little effect” in each case. Moreover, the “cellular fluorescence (endosomal escape) by flow cytometry” value in the assay with CHO cells [4] and in the assay on Jurkat lymphocytes [5] was “did not increase fluorescence” in each case.
`CCN(CC)CCCC(C)Nc1ccnc2cc(Cl)ccc12` (stereo not drawn) [chloroquine]: the “effect of raising endosomal pH on release of the fluorophore” value in the assay with CHO cells [6] is “blocked release of the fluorophore”.
